US20100203123A1, “METHODS FOR IMPROVING COGNITIVE FUNCTION AND DECREASING HEART RATE” (MARTEK BIOSCIENCES CORPORATION, priority 2009, published 2010)
“Also recorded” adds a separate entry of the source.

What was measured:
Type in all cases: in vivo, human
[1] = system: healthy elderly subjects with a mild memory complaint; test: CANTAB Verbal Recognition Memory (VRM) test
Procedure: (§1) The effects of DHA (about 900 mg/day) versus placebo was tested to determine whether cognitive measures of memory, attention, and executive function were improved, utilizing the Cambridge Neuropsychological Test Automated Battery (CANTAB) cognitive battery, in healthy elderly subjects with a mild memory complaint. One objective of the study was to determine the effect of DHA administration versus placebo on improving cognitive functions (i.e., working memory, memory retention, attention, processing speed, and executive function) in healthy elderly with a subjective memory complaint. Another objective of the study included determining the effects of DHA on visual acuity, levels of plasma phospholipids, and evaluating the safety and tolerability of the DHA dose administered.
(§2) The DHA group was provided 800 mg soft-gelatin capsules, each containing about 300 mg DHA as a triglyceride from algal oil (DHASCO®-S oil, 40% DHA). In addition to 40% DHA, DHASCO®-S oil was formulated to contain 40-60% saturated, mono- and polyunsaturated fatty acids, 400 ppm ascorbyl palmitate, 2000 ppm mixed tocopherols, 2000 ppm rosemary extract, 3% orange-flavoring, and 1% natural masking agent. Subjects were instructed to take three 800 mg capsules/day, i.e., about 900 mg DHA/day.
(§3) The secondary efficacy endpoints included: • CANTAB tests of executive function and planning: Spatial Working Memory […] and Stockings of Cambridge (SOC) • CANTAB Verbal Recognition Memory test (VRM) • CANTAB Pattern Recognition test (PRM) • Visual acuity (measured by Snellen Eye chart; corrected vision) • Memory Functioning Questionnaire: Frequency of Forgetting-10 (Self-rating scale) • Activities of Daily Living (ADCS-ADL PI) scale (Self-rating) • Clinical measures of cognitive function and computerized assessments were administered by (CANTAB) certified examiners at each site blinded to the subject's treatment. • Description of CANTAB Battery of tests
Additional tests are included in CANTABeclipse and are available in the CANTABelect batteries. […]

[2] = system: healthy elderly subjects with a mild memory complaint; test: CANTAB Pattern Recognition Memory (PRM) test; details: about 900 mg/d, 24 weeks
Procedure: as §1, with “Another objective of the study included determining the effects of DHA on visual acuity, levels of plasma phospholipids, and evaluating the safety and tolerability of the DHA dose administered.” left out
as §3, with “of tests […]” for “of tests”

[3] = system: healthy elderly subjects with a mild memory complaint; test: Mini-Mental State Examination (MMSE); details: 6 month study, not different between groups
Description: (§4) During the Screening Period, subjects were selected on the basis of specific inclusion and exclusion criteria, including a screening Logical Memory sub-test of the Wechsler Memory Scale (WMS III). See e.g., Wechsler, D., Administration and Scoring Manual, 3rd ed. San Antonio, Tex.: Harcourt Brace & Company, 1997. In addition to the Logical Memory sub-test, the Mini-Mental State Examination (MMSE), Geriatric Depression scale, and a test of visual acuity and a DHA Food Frequency Questionnaire were administered to all subjects at screening. See e.g., Folstein et al., Pyschiatr. Res. 12:189-198 (1975); Yesavage J., et al., J Psychiatr. Res. […] (1982). Eligible subjects who meet the screening criteria were given a pre-baseline training session with the computerized cognitive battery, CANTAB.
(§5) Other secondary measures included self-assessment tests of memory (Frequency of Forgetting-10 scale) (Zelinski, E. M. et al., Aging and Mental Health […]), Alzheimer's Disease Cooperative Study-Activities of Daily Living Prevention Instrument (ADCS-ADL PI scale) (Galasko, D., Alzheimer Dis. Assoc. Disord. 20:S152-69 (200)), Mini-Mental State Examination (MMSE) (Folstein et al., Pyschiatr. Res. 12:189-198 (1975) and the Geriatric Depression Scale (Yesavage, J., et al., J Psychiatr. Res. […]).

[4] = system: healthy elderly subjects with a mild memory complaint; test: CANTAB Spatial Working Memory (SWM) test; details: about 900 mg/d, 24 weeks
Procedure: as §1, with “Another objective of the study included determining the effects of DHA on visual acuity, levels of plasma phospholipids, and evaluating the safety and tolerability of the DHA dose administered.” left out
as §3, with “of tests […]” for “of tests”

[5] = system: healthy elderly subjects with a mild memory complaint; test: CANTAB Stockings of Cambridge (SOC) test; details: about 900 mg/d, 24 weeks
Procedure: as §1, with “Another objective of the study included determining the effects of DHA on visual acuity, levels of plasma phospholipids, and evaluating the safety and tolerability of the DHA dose administered.” left out
as §3, with “of tests […]” for “of tests”

[6] = system: healthy elderly subjects with a mild memory complaint; test: ADL (ADCS-ADL PI) and self-assessment of memory (Frequency of Forgetting-10); details: 6 month study
Description: as §3, §5

[7] = Plasma phospholipid fatty acid levels
Procedure: as §2
Blood samples of the subjects were collected at baseline and at the week 24 or “end of study” visit to determine phospholipid levels. Samples were collected into 10 ml vacutainer EDTA tubes, centrifuged at 3000 rpm and plasma was stored at −80° C. until analyzed. Plasma phospholipid fatty acids were analyzed as described previously. See, e.g., Arterburn, L. M., et al., Lipids 42:1011-1024 (2007). The fatty acid profiles were expressed as a percent of the total […] of fatty acid (weight percent).

[8] = system: healthy elderly subjects with a mild memory complaint; test: Safety and tolerability of the DHA dose
Procedure: as §1
(§6) Pre-baseline testing with the CANTAB occurred to serve as a training session and to familiarize the subject with the computer system. Morris R, et al., Computer Aided Assessment of Dementia: Comparative Studies of Neuropsychological Deficits in Alzheimer Type Dementia and Parkinson's Disease (1987). Seven (+/−2) days following this pre-baseline testing, baseline measurements were taken, including baseline laboratory measures, vital signs, and the CANTAB cognitive battery. […] Compliance was assessed by food frequency questionnaires, returned capsule counts, and by plasma DHA levels (taken at 24 weeks). […]

[9] = system: healthy elderly subjects with a mild memory complaint; test: Geriatric Depression Scale; details: 6 month study, not different between groups
Description: as §4, §5

[10] = system: healthy elderly subjects with a mild memory complaint; test: CANTAB Paired Associate Learning (PAL) test, randomized double-blind placebo-controlled 24 week study
Procedure: as §1
The study was a randomized, double-blind, placebo-controlled, parallel, multi-center design study to evaluate the effects of an oral dose of DHA on cognitive functions in healthy elderly with a subjective memory complaint. The study consisted of a screening/baseline period, and a 24 week treatment period.
as §2
Pre-baseline testing with the CANTAB occurred to serve as a training session and to familiarize the subject with the computer system. Morris R, et al., Computer Aided Assessment of Dementia: Comparative Studies of Neuropsychological Deficits in Alzheimer Type Dementia and Parkinson's Disease (1987). Seven (+/−2) days following this pre-baseline testing, baseline measurements were taken, including baseline laboratory measures, vital signs, and the CANTAB cognitive battery. At the baseline session, subjects were stratified based on age (55-69; ≧70) and randomly assigned to receive about 900 mg DHA, or placebo. Capsules, either DHA or placebo, as randomly assigned, was given to each subject at the end of the baseline visit. Subjects were instructed to take 3 capsules everyday for the ensuing 24 weeks and were supplied initially with 3 months' worth of capsules. At the end of 4 weeks, subjects returned to the site for compliance and safety assessments. Subjects returned to the site at 12 weeks for safety and efficacy assessments and were re-supplied with the final 3 months' worth of capsules. Subjects returned to the site at 24 weeks for the “end of study” efficacy and safety assessments. Compliance was assessed by food frequency questionnaires, returned capsule counts, and by plasma DHA levels (taken at 24 weeks). The CANTAB cognitive battery consists of tests of memory, learning, attention, problem-solving, and executive function (i.e., planning and organizational skills). See e.g., Fowler et al., Applied Neuropsychology 2:72-78 (1995); Robbins et al., Dementia 5:266-281 (1994); and De Luca et al., J Clinical and Experimental Neuropsychology 25:242-254 (2003).
A primary efficacy endpoint of the CANTAB test score on the Paired Associate Learning (PAL) test at 24 weeks of treatment was used as the primary efficacy outcome. The primary analysis was adjusted for baseline scores, education, site, and the stratification factor of age. Secondary analyses were based on the model above with the addition of the factor, concomitant statin medication use. The PAL subtest of the CANTAB is a test of visuospatial cued recall memory that detects changes in episodic memory. See e.g., de Jager et al., Psychological Medicine 32:483-491 (2002). […]

[11] = Vital signs (heart rate, blood pressure, body weight); details: about 900 mg/d, 24 weeks
Procedure: as §1, §2
as §6, with “battery. At the baseline session, subjects were stratified based on age (55-69; ≧70) and randomly assigned to receive about 900 mg DHA, or placebo.” for “battery.”

CC/C=C\C/C=C\C/C=C\C/C=C\C/C=C\C/C=C\CCC(=O)O [DHA, (all-Z)-4,7,10,13,16,19-docosahexaenoic acid]
VRM delayed recognition, change from baseline correct responses, diff. versus placebo ([1]; about 900 mg/d, p<0.02): 0.4±0.18
VRM immediate recognition, change from baseline correct responses, diff. versus placebo ([1]; about 900 mg/d, p<0.02): 0.4±0.17
CANTAB Verbal recognition memory, effect of DHA supplementation ([1]; about 900 mg/day, 6 months): modestly improved
CANTAB Pattern Recognition test responses, DHA versus placebo [2]: not significantly different
MMSE, global cognitive function [3]: unchanged
Spatial Working Memory (SWM) test responses, DHA versus placebo [4]: not significantly different; also recorded: not found
changes in executive function (SOC) [5]: not found
ADL assessment [6]: unaffected by DHA supplementation
self-perceptive memory assessment [6]: unaffected by DHA supplementation
plasma phospholipid DHA change, diff. score versus placebo ([7]; 24 weeks, p<0.001): 3.15±0.16
plasma phospholipid DPAn-6, mean change ([7]; 24 weeks, placebo −0.004, p<0.001): 0.37 weight %
plasma phospholipid EPA, mean change ([7]; 24 weeks, placebo −0.06, p<0.001): 0.16 weight %
plasma phospholipid arachidonic acid (ARA), mean change from baseline ([7]; 24 weeks, placebo −0.12, p<0.001): −1.37 weight %
plasma phospholipid ARA levels, decrease ([7]; about 900 mg/day, six months): 1.4 weight %
plasma phospholipid DHA, increase from baseline ([7]; week 24, about 900 mg/day, placebo −0.08): 3.2 weight %
plasma phospholipid DHA level after treatment ([7]; week 24, baseline 3.2 weight %, p<0.001): 6.4 weight %
treatment-related SAEs ([8]; about 900 mg/d, 24 weeks): no treatment-related SAEs were reported
tolerability ([8]; about 900 mg/day algal DHA, six months): well tolerated
Geriatric Depression scale [9]: unchanged
errors made on the PAL 6 pattern stage test, diff. score versus placebo, change from baseline ([10]; about 900 mg/d DHA, six months, ITT analysis, p<0.03): −1.63±0.76
PAL primary endpoint, diff. score versus placebo, compliers analysis ([10]; about 900 mg/d, week 24, 95% CI −3.1, 0.4, p<0.13, not significant): −1.3±0.89
improvement in PAL test performance compared to age-associated normative data ([10]; about 900 mg/day, 6 months, placebo 3.6 year): 7 year
reduction in CANTAB PAL 6 pattern errors compared to the decrease with placebo ([10]; about 900 mg/day, six months): ~2 fold
mean PAL errors after 6 months of DHA supplementation ([10]; baseline 13.4±11.5): 8.8±9.9
normative age corresponding to mean PAL errors after 6 months ([10]; baseline 72.6 years): 65.6 years of age
blood pressure, DHA versus placebo [11]: remained unchanged
body weight, DHA versus placebo [11]: remained unchanged
heart rate, change from baseline ([11]; placebo −1 BPM, p<0.03): −3.2 BPM
